{"source": "patent US20180064125A1", "about": "“INHIBITION OF PATHOGENIC GROWTH ON PLANT MATERIALS USING LACTIC ACID PRODUCING MICROORGANISMS” (priority 2009, published 2018)", "system": "E. coli O157:H7", "experiment": "12 day shelf-life study of inoculated spinach rinsed with LAB, chlorine or multi-hurdle intervention at 7° C.", "parameters": "species or system Escherichia coli O157:H7", "conditions": "12 day shelf-life at 7° C., in words, P<0.0001", "data": [{"compound": "OCl", "note": "[chlorine, sodium hypochlorite]", "values": [{"measurement": "Reductions in pathogen populations compared to control populations", "value": "Significant reductions"}]}]}
